Test system: SPOP MATH domain
Assay: Linear free energy relationship (LFER) analysis of binding to SPOP MATH wildtype and mutant variants
Conditions: LFER over MATH wildtype and mutant variants
Text: A powerful method used to address the mechanism of binding between ligands is to study the effect of structural perturbation on the transition and ground states. This approach, classically denoted as Leffler or Linear Free Energy Relationship (LFER) analysis, aims at analyzing the correlation of the change in activation free energy to the change in equilibrium free energy; LFER analysis has been used in organic chemistry, protein folding, enzymology, and protein–protein interaction studies to decipher the position of the transition state of a reaction along the reaction coordinates. The analysis of the dependences of the microscopic association and dissociation rate constants over the equilibrium constant of each MATH variant to Puc and MacroH2A are reported in Figure 5.
Figure 5 Linear free energy relationship for the binding of MATH wildtype and mutant variants to the peptides Puc (panels (A,B)) and MacroH2A (panels (C,D)). Panels (A,C) represent the dependences of the microscopic association rate constant kon on the equilibrium dissociation constant. Panels (B,D) represent the dependences of the microscopic dissociation rate constant koff on the equilibrium dissociation constant. The blue and red dots represent the dependences of kon or koff on the equilibrium dissociation constant (KD), respectively.

DEVTSTTSSS [Puc]
slope of log koff versus log KD: 0.36 ± 0.09
slope of log kon vs. log KD: −0.64 ± 0.09

KAASADSTTEGTPAD [MacroH2A]
slope of log koff versus log KD: 0.02 ± 0.11
slope of log kon vs. log KD: −0.98 ± 0.11

From paper PMC10743451, “Addressing the Binding Mechanism of the Meprin and TRAF-C Homology Domain of the Speckle-Type POZ Protein Using Protein Engineering” (International Journal of Molecular Sciences, 2023)
